These results are taken from ChEMBL document CHEMBL1142501, “PASS-assisted exploration of antidepressant activity of 1,3,4-trisubstituted-beta-lactam derivatives” (Bioorg Med Chem Lett, 2008).

Holding throughout (format): functional, organism-based
Experiment [1] deals with Mus musculus. The experiment is described as follows: Antidepressant activity against dark-induced depression in Albino Swiss mouse assessed as increase in brain serotonin level at 15 mg/kg, ip once daily for 4 days and 30 mins before test on day 5. Also on record: dose 15 mg/kg.
For experiment [2], the system named is Mus musculus. In words: Antidepressant activity against dark-induced depression in Albino Swiss mouse assessed as decrease in immobility period at 30 mg/kg, ip once daily for 4 days and 30 mins before test on day 5 by forced swimming test. Also on record: dose 30 mg/kg.
For experiment [3], the system named is Mus musculus. The experiment is described as follows: Antidepressant activity against dark-induced depression in Albino Swiss mouse assessed as decrease in immobility period at 15 mg/kg, ip once daily for 4 days and 30 mins before test on day 5 by forced swimming test. Also on record: dose 15 mg/kg.
In experiment [4] the test system is Mus musculus. The experiment is described as follows: Antidepressant activity against dark-induced depression in Albino Swiss mouse assessed as increase in brain serotonin level at 20 mg/kg, ip once daily for 4 days and 30 mins before test on day 5. Also noted: dose 20 mg/kg.
Experiment [5] concerns Mus musculus. The experiment is described as follows: Antidepressant activity against dark-induced depression in Albino Swiss mouse assessed as decrease in immobility period at 20 mg/kg, ip once daily for 4 days and 30 mins before test on day 5 by forced swimming test. Also on record: dose 20 mg/kg.

Active and inactive are the calls of the source. The rule behind the calls is not given here.

`Cc1ccc(N2C(=O)[C@@H]3[C@H]([C@H]4C(=O)N(C5CCCCC5)[C@H]4c4ccc(Cl)cc4)C=CC[C@@H]3C2=O)cc1`: the result in experiment [1], in experiment [2] and in experiment [3] was inactive.
Consider `CNCCC(Oc1ccc(C(F)(F)F)cc1)c1ccccc1` (stereo not given), for which the outcome in experiment [4] and in experiment [5] was Active.
As to `O=C1OC(=O)[C@H]2CC=C[C@@H]([C@H]3C(=O)N(c4ccccc4)[C@@H]3c3ccccc3)[C@@H]12`, the result in experiment [1], in experiment [2] and in experiment [3] was Active.
Take `COc1ccc([C@@H]2[C@@H]([C@@H]3C=CC[C@@H]4C(=O)N(c5ccccc5)C(=O)[C@H]34)C(=O)N2c2ccccc2)cc1`: the outcome in experiment [1], in experiment [4], in experiment [2] and in experiment [3] was Active.
Consider `O=C1C=CC(=O)[C@H]2CC=C[C@@H]([C@H]3C(=O)N(C4CCCCC4)[C@H]3c3ccccc3)[C@@H]12`, for which the result in experiment [1], in experiment [2] and in experiment [3] was Active.
